Measurements reported in ChEMBL document CHEMBL4616632, “Discovery of Cyclic Boronic Acid QPX7728, an Ultrabroad-Spectrum Inhibitor of Serine and Metallo-β-lactamases” (J Med Chem, 2020).

Assays:
Klebsiella pneumoniae [1] = experiment: Inhibition of Klebsiella pneumoniae KP1009 CTX-M-15 assessed as minimum concentration of compound required to reduce the MIC of aztreonam to 4 ug/ml
Escherichia coli [2] = experiment: Inhibition of Escherichia coli KP308 SHV-5 assessed as minimum concentration of compound required to reduce the MIC of aztreonam to 4 ug/ml
Escherichia coli [3] = experiment: Inhibition of Escherichia coli EC302 TEM-10 assessed as minimum concentration of compound needed to reduce the MIC of aztreonam to 4 ug/ml
[4] = target: Beta-lactamase (Klebsiella pneumoniae) (UniProt Q93LQ9); experiment: Inhibition of Klebsiella pneumoniae KP1004 KPC-2 assessed as minimum concentration of compound needed to reduce the MIC of aztreonam to 4 ug/ml
Chain of Beta-lactamase (Klebsiella pneumoniae) (Q93LQ9 as listed by the source): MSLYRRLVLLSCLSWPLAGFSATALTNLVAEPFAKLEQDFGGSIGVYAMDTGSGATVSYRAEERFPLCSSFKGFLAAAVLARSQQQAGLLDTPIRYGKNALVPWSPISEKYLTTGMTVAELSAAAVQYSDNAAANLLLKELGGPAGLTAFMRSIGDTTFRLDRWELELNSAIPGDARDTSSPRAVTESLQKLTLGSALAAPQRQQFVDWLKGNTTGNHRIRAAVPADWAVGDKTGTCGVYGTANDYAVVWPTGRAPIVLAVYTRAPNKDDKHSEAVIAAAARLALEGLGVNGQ

Enterobacter cloacae = experiment: Inhibition of Enterobacter cloacae ECL1002 AmpC assessed as minimum concentration of compound needed to reduce the MIC of aztreonam to 4 ug/ml
Klebsiella pneumoniae [5] = experiment: Inhibition of Klebsiella pneumoniae KP1081 NDM-1 assessed as minimum concentration of compound required to reduce the MIC of biapenem to 1 ug/ml
Klebsiella pneumoniae [6] = experiment: Inhibition of Klebsiella pneumoniae KP1054 VIM-1 assessed as minimum concentration of compound required to reduce the MIC of biapenem to 1 ug/ml
Pseudomonas aeruginosa = experiment: Inhibition of Pseudomonas aeruginosa PAM 2035 AmpC assessed as minimum concentration of compound needed to reduce the MIC of aztreonam to 4 ug/ml
Klebsiella pneumoniae [7] = experiment: Inhibition of Klebsiella pneumoniae KP1160 IMP-26 assessed as minimum concentration of compound needed to reduce the MIC of meropenem to 1 ug/ml
Escherichia coli [8] = experiment: Inhibition of Escherichia coli ECM6625 SHV-5 assessed as minimum concentration of compound needed to reduce the MIC of aztreonam to 4 ug/ml
Escherichia coli [9] = experiment: Inhibition of Escherichia coli ECM6619 TEM-10 assessed as minimum concentration of compound needed to reduce the MIC of aztreonam to 4 ug/ml
Acinetobacter baumannii = experiment: Inhibition of Acinetobacter baumannii AB1053 OXA-72 assessed as minimum concentration of compound needed to reduce the MIC of meropenem to 8 ug/ml
[10] = target: Beta-lactamase OXA-23 (Acinetobacter baumannii) (UniProt Q9L4P2); experiment: Inhibition of Acinetobacter baumannii AB1054 OXA-23 assessed as minimum concentration of compound needed to reduce the MIC of meropenem to 8 ug/ml
Chain of Beta-lactamase OXA-23 (Acinetobacter baumannii) (Q9L4P2 whole entry): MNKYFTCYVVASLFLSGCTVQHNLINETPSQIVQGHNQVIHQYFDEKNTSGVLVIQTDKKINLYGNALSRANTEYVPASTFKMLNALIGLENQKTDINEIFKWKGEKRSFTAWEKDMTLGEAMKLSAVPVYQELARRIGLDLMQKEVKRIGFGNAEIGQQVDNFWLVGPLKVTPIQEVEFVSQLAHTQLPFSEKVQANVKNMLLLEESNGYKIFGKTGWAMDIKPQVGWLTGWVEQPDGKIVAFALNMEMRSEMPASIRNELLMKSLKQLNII

SMILES	MEC (Klebsiella pneumoniae [1]) [µg/mL]	MEC (Escherichia coli [2]) [µg/mL]	MEC (Escherichia coli [3]) [µg/mL]	MEC [4] [µg/mL]	MEC (Enterobacter cloacae) [µg/mL]	MEC (Klebsiella pneumoniae [5]) [µg/mL]	MEC (Klebsiella pneumoniae [6]) [µg/mL]	MEC (Pseudomonas aeruginosa) [µg/mL]	MEC (Klebsiella pneumoniae [7]) [µg/mL]	MEC (Escherichia coli [8]) [µg/mL]	MEC (Escherichia coli [9]) [µg/mL]	MEC (Acinetobacter baumannii) [µg/mL]	MEC [10] [µg/mL]
COc1ccc2c(c1C(=O)O)OB(O)C1C2C1(F)F (stereo not drawn)	1.25	1.25	5	1.25	10	2.5	10	10	> 20	1.25	5	5	10
COc1ccc2c(c1C(=O)O)OB(O)C1CC21 (stereo not drawn)	0.3	0.3	0.3	0.16	0.3	0.6	0.08	5	5	0.3	0.3	0.6	1.25
COc1ccc2c(c1C(=O)O)OB(O)[C@@H](CCO)C2	20	20	> 20	5	10	2.5	2.5	20	> 20	20	> 20	10	10
COc1ccc2c(c1C(=O)O)OB(O)C(F)=C2	1.25	1.25	1.25	0.16	0.3	5	> 20	5	2.5	1.25	1.25	2.5	5
COc1ccc2c(c1C(=O)O)OB(O)[C@H]1C[C@@H]21	0.6	0.3	0.6	0.16	1.25	0.6	0.3	2.5	20	0.3	0.6	0.6	1.25
C[C@@H]1Cc2cccc(C(=O)O)c2OB1O	> 20	> 20	> 20	5	> 20	10	20	1.25	> 20	> 20	> 20	> 20	> 20
O=C(O)c1nccc2c1OB(O)[C@H]1C[C@@H]21	20	10	5	1.25	20	20	20	10	> 20	10	5	5	10
O=C(O)c1cccc2c1OB(O)[C@@H]1C[C@H]21	0.6	0.3	0.16	0.16	0.3	0.6	0.16	0.6	20	0.3	0.16	5	10
COc1ccc2c(c1C(=O)O)OB(O)C(CO)C2 (stereo not drawn)	> 20	> 20	> 20	10	20	> 20	> 20	> 20	> 20	> 20	> 20	> 20	> 20
O=C(O)c1cccc2c1OB(O)[C@H]1C[C@@H]21	10	5	5	0.16	10	1.25	10	2.5	> 20	5	5	20	20
COc1ccc2c(c1C(=O)O)OB(O)C1(CC1)C2	> 20	> 20	> 20	5	10	10	5	10	> 20	> 20	> 20	> 20	> 20
